Reference: ChEMBL document CHEMBL1629585, “Nationwide survey of CTX-M-type extended-spectrum beta-lactamases among Klebsiella pneumoniae isolates in Slovenian hospitals” (2009)
Values after ≈ are worked out from the molar mass of the structure shown.

What was measured:
Escherichia coli [1] = experiment: Antibacterial activity against Escherichia coli TrC A expressing Klebsiella pneumoniae A blaCTX-M beta-lactamase by Etest method; format: functional
Escherichia coli [2] = experiment: Antibacterial activity against Escherichia coli TrC C expressing Klebsiella pneumoniae C blaCTX-M beta-lactamase by Etest method; format: functional
Klebsiella pneumoniae [3] = experiment: Antibacterial activity against Klebsiella pneumoniae C expressing CTX-M group 1 beta-lactamase by Etest method; format: functional
Klebsiella pneumoniae [4] = experiment: Antibacterial activity against Klebsiella pneumoniae A expressing CTX-M group 1 beta-lactamase by Etest method; format: functional
Escherichia coli [5] = experiment: Antibacterial activity against Escherichia coli TrC B expressing Klebsiella pneumoniae B blaCTX-M beta-lactamase by Etest method; format: functional
Escherichia coli [6] = experiment: Antibacterial activity against rifampicin resistant Escherichia coli J53-2 by Etest method
Klebsiella pneumoniae [7] = experiment: Antibacterial activity against Klebsiella pneumoniae D expressing CTX-M group 1 beta-lactamase by Etest method; format: functional
Klebsiella pneumoniae [8] = experiment: Antibacterial activity against Klebsiella pneumoniae B expressing CTX-M group 1 beta-lactamase by Etest method; format: functional
Klebsiella pneumoniae [9] = experiment: Antibacterial activity against Klebsiella pneumoniae expressing CTX-M group 1 beta-lactamase by Etest method; format: functional
Klebsiella pneumoniae [10] = experiment: Antibacterial activity against Klebsiella pneumoniae expressing CTX-M group 1 beta-lactamase by Etest method in presence of Tazobactam; format: functional
Klebsiella pneumoniae [11] = experiment: Antibacterial activity against Klebsiella pneumoniae A expressing CTX-M group 1 beta-lactamase by Etest method in presence of Tazobactam; format: functional
Klebsiella pneumoniae [12] = experiment: Antibacterial activity against Klebsiella pneumoniae D expressing CTX-M group 1 beta-lactamase by Etest method in presence of Tazobactam; format: functional
Klebsiella pneumoniae [13] = experiment: Antibacterial activity against Klebsiella pneumoniae C expressing CTX-M group 1 beta-lactamase by Etest method in presence of Tazobactam; format: functional
Klebsiella pneumoniae [14] = experiment: Antibacterial activity against Klebsiella pneumoniae B expressing CTX-M group 1 beta-lactamase by Etest method in presence of Tazobactam; format: functional

Row | SMILES | MIC (Escherichia coli [1]) | MIC (Escherichia coli [2]) | MIC (Klebsiella pneumoniae [3]) | MIC50 (Klebsiella pneumoniae [3]) | MIC90 (Klebsiella pneumoniae [3]) | MIC (Klebsiella pneumoniae [4]) | MIC50 (Klebsiella pneumoniae [4]) | MIC90 (Klebsiella pneumoniae [4]) | MIC (Escherichia coli [5]) | MIC (Escherichia coli [6]) | MIC (Klebsiella pneumoniae [7]) | MIC50 (Klebsiella pneumoniae [7]) | MIC90 (Klebsiella pneumoniae [7]) | MIC (Klebsiella pneumoniae [8]) | MIC50 (Klebsiella pneumoniae [8]) | MIC90 (Klebsiella pneumoniae [8]) | MIC (Klebsiella pneumoniae [9]) | MIC50 (Klebsiella pneumoniae [9]) | MIC90 (Klebsiella pneumoniae [9]) | also measured
1 | NCC[C@H](O)C(=O)N[C@@H]1C[C@H](N)[C@@H](O[C@H]2O[C@H](CN)[C@@H](O)[C@H](O)[C@H]2O)[C@H](O)[C@H]1O[C@H]1O[C@H](CO)[C@@H](O)[C@H](N)[C@H]1O [AMIKACIN] | 2 µg/mL (≈ 3.42 µM) | 4 µg/mL (≈ 6.83 µM) | 1.5 µg/mL (≈ 2.56 µM) | 6 µg/mL (≈ 10.2 µM) | 16 µg/mL (≈ 27.3 µM) | 2 µg/mL (≈ 3.42 µM) | 48 µg/mL (≈ 82 µM) | 96 µg/mL (≈ 164 µM) | 4 µg/mL (≈ 6.83 µM) | 1 µg/mL (≈ 1.71 µM) | 2 µg/mL (≈ 3.42 µM) | 6 µg/mL (≈ 10.2 µM) | 16 µg/mL (≈ 27.3 µM) | 4 µg/mL (≈ 6.83 µM) | 6 µg/mL (≈ 10.2 µM) | 12 µg/mL (≈ 20.5 µM) | 2 µg/mL (≈ 3.42 µM) | 16 µg/mL (≈ 27.3 µM) | 32 µg/mL (≈ 54.6 µM) | 
2 | CC1(C)S[C@@H]2[C@H](NC(=O)[C@H](N)c3ccc(O)cc3)C(=O)N2[C@H]1C(=O)O [AMOXICILLIN] |  |  | 6 µg/mL (≈ 16.4 µM) | 16 µg/mL (≈ 43.8 µM) | 64 µg/mL (≈ 175 µM) | 4 µg/mL (≈ 10.9 µM) | 8 µg/mL (≈ 21.9 µM) | 8 µg/mL (≈ 21.9 µM) |  |  | 6 µg/mL (≈ 16.4 µM) | 16 µg/mL (≈ 43.8 µM) | 16 µg/mL (≈ 43.8 µM) | 12 µg/mL (≈ 32.8 µM) | 16 µg/mL (≈ 43.8 µM) | 16 µg/mL (≈ 43.8 µM) | 8 µg/mL (≈ 21.9 µM) | 16 µg/mL (≈ 43.8 µM) | > 256 µg/mL | 
3 | CCN1CCN(C(=O)N[C@@H](C(=O)N[C@@H]2C(=O)N3[C@@H]2SC(C)(C)[C@@H]3C(=O)O)c2ccccc2)C(=O)C1=O [PIPERACILLIN] | > 64 µg/mL | > 64 µg/mL |  |  |  |  |  |  | > 64 µg/mL | 4 µg/mL (≈ 7.73 µM) |  |  |  |  |  |  |  |  |  | MIC (Klebsiella pneumoniae [10]): 3 µg/mL; MIC50 (Klebsiella pneumoniae [10]): 12 µg/mL; MIC90 (Klebsiella pneumoniae [10]): > 256 µg/mL; MIC (Klebsiella pneumoniae [11]): 2 µg/mL; MIC50 (Klebsiella pneumoniae [11]): 3 µg/mL; MIC90 (Klebsiella pneumoniae [11]): 12 µg/mL; MIC (Klebsiella pneumoniae [12]): 4 µg/mL; MIC50 (Klebsiella pneumoniae [12]): 12 µg/mL; MIC90 (Klebsiella pneumoniae [12]): 24 µg/mL; MIC (Klebsiella pneumoniae [13]): 3 µg/mL; MIC50 (Klebsiella pneumoniae [13]): > 256 µg/mL; MIC90 (Klebsiella pneumoniae [13]): > 256 µg/mL; MIC (Klebsiella pneumoniae [14]): 32 µg/mL; MIC50 (Klebsiella pneumoniae [14]): 64 µg/mL; MIC90 (Klebsiella pneumoniae [14]): > 256 µg/mL
4 | CO/N=C(\C(=O)N[C@@H]1C(=O)N2C(C(=O)[O-])=C(C[N+]3(C)CCCC3)CS[C@H]12)c1csc(N)n1 |  |  |  |  |  |  |  |  |  |  | 32 µg/mL (≈ 66.6 µM) |  | > 256 µg/mL | 16 µg/mL (≈ 33.3 µM) | 16 µg/mL (≈ 33.3 µM) | 48 µg/mL (≈ 99.9 µM) |  |  |  | 
5 | O=C(O)c1cn(C2CC2)c2cc(N3CCNCC3)c(F)cc2c1=O [CIPROFLOXACIN] | ≤ 0.125 µg/mL | ≤ 0.125 µg/mL |  | > 32 µg/mL | > 32 µg/mL | 0.38 µg/mL (≈ 1.15 µM) | 1 µg/mL (≈ 3.02 µM) | 6 µg/mL (≈ 18.1 µM) | ≤ 0.125 µg/mL | ≤ 0.125 µg/mL |  | > 32 µg/mL | > 32 µg/mL |  | > 32 µg/mL | > 32 µg/mL | 0.032 µg/mL (≈ 0.0966 µM) | 16 µg/mL (≈ 48.3 µM) | > 32 µg/mL | 
6 | NC[C@H]1O[C@H](O[C@H]2[C@H](O)[C@@H](O[C@H]3O[C@H](CO)[C@@H](O)[C@H](N)[C@H]3O)[C@H](N)C[C@@H]2N)[C@H](N)C[C@@H]1O [TOBRAMYCIN] | 32 µg/mL (≈ 68.4 µM) | 16 µg/mL (≈ 34.2 µM) | 32 µg/mL (≈ 68.4 µM) |  |  | 32 µg/mL (≈ 68.4 µM) |  |  | 32 µg/mL (≈ 68.4 µM) | 1 µg/mL (≈ 2.14 µM) |  |  |  | 32 µg/mL (≈ 68.4 µM) |  |  |  |  |  | 
